Source: PMC10611581, “Directed evolution unlocks oxygen reactivity for a nicotine-degrading flavoenzyme” (Nature Chemical Biology, 2023)

T1: NicA2 (nicotine oxidoreductase) (Pseudomonas putida, UniProt F8G0P2)
T1 construct: expressed in E. coli BL21 (DE3) from pET28a-His-SUMO-nicA2, His-SUMO tag cleaved by ULP-1
T1 sequence (F8G0P2 39-482 limits assumed): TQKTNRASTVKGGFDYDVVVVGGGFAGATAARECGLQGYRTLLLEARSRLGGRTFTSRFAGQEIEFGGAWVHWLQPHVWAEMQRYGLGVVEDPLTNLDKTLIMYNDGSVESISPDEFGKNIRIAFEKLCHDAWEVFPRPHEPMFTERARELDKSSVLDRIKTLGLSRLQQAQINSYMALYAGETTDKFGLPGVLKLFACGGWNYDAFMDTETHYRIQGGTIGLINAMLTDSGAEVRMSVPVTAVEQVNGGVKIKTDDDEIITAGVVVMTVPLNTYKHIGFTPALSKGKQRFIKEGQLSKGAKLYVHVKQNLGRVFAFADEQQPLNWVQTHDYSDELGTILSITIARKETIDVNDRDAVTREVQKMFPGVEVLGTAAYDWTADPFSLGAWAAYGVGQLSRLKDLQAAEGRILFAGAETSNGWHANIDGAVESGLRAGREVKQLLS

B1: nicotine oxidoreductase (NicA2), wild type (enzyme, Pseudomonas putida S16, UniProt F8G0P2 39-482, looked up)
chain: T1 sequence (F8G0P2 39-482 limits assumed)
notes: nicotine oxidoreductase NicA2 of Pseudomonas putida S16; crystallised with N-methylmyosmine (NMM); also called wild-type NicA2; WT; source: E. coli BL21 (DE3), purified (HisTrap, ULP-1 cleavage, HiTrap Q, Superdex 200)

How the values were obtained:
[1] = target: T1, NicA2 (nicotine oxidoreductase); experiment: bound flavin absorbance at […] nm; ThermoFAD; assay type: binding; details: co-purified bound cofactor
[2] = target: the molecule itself; experiment: crystal structure; hanging-drop vapor diffusion at 4 °C; NicA2 v321 ligand-free and with 20 mM NMM (sodium citrate pH 5.0, 18% PEG 6000), wild type with 2.3 mM NMM (0.2 M ammonium citrate pH 7.0, 20% PEG 3350); two molecules in the asymmetric unit

Molecule	bound flavin absorbance at 450 nm; ThermoFAD [1]	stoichiometry N [2]
Cc1cc2nc3c(=O)[nH]c(=O)nc-3n(C[C@H](O)[C@H](O)[C@H](O)COP(=O)(O)OP(=O)(O)OC[C@H]3O[C@@H](n4cnc5c(N)ncnc54)[C@H](O)[C@@H]3O)c2cc1C [flavin adenine dinucleotide]	determined using the absorbance of bound FAD cofactor	
B1		2
